According to article PMC12339163, “Combining Plant Bioactives With Antibiotics for Enhanced Antibiofilm Activity Against Uropathogenic Staphylococcus spp. and Cytotoxicity Evaluation” (Advances in Pharmacological and Pharmaceutical Sciences, 2025):
Converted amounts (≈) assume the structure as drawn. Read-outs that look alike come from different tables or passages of the source.

Key:
[1] = tested on: planktonic cells of Staphylococcus saprophyticus; test: Checkerboard combination assay, planktonic cells; assay type: cell-based; conditions: S. saprophyticus, mean; for MIC: Staphylococcus saprophyticus
Experimental: (§1) The checkerboard assay, as previously described, was used for the determination of the fractional inhibitory concentration index (FICI). Briefly, 50 µL of MHB was distributed into each well of a 96-well microplate. ATBs were serially diluted along the abscissa, and NPs were serially diluted along the ordinate. Then, 100 µL of bacterial inoculum (1.5 × 10^6 CFU/mL) was added to each well and incubated at 37°C for 24 h. The final concentration ranged from 0.125 to 128 µg/mL for ATBs and 4–512 µg/mL for NPs. After incubation, a volume of 40 µL of INT solution (0.2 mg/mL) was added to each well, and the microplate was incubated at 37°C for 30 min. The wells containing bacterial inoculum and MHB were used as a positive control, while wells containing only MHB + 1% glucose were used as a negative control and used as a blank. Viable bacteria cells change the yellow dye of INT to a pink color. The MICs were considered to be the lowest NP concentrations that prevented the color change medium. Subsequently, the FICI was calculated according to the formula FICI = (MIC of the ATBs in combination/MIC of the ATBs alone) + (MIC of a natural substance in combination/MIC of the natural substance alone). FICI values were interpreted as follows: synergy when FICI ≤ 0.5; additive when 0.5 < FICI ≤ 1; indifference when 1 < FICI ≤ 4; and antagonism when FICI > 4.

[2] = tested on: planktonic cells of Staphylococcus aureus; test: Checkerboard combination assay, planktonic cells; assay type: cell-based; conditions: Staphylococcus aureus, S. aureus, mean
Experimental: as §1

S. epidermidis = test: MIC and MBC, broth microdilution; assay type: cell-based, Staphylococcus epidermidis; conditions: Staphylococcus epidermidis, geometric mean, S. epidermidis (n = 3); for MBC: read-out: MBC; for MIC: read-out: MIC
Experimental: Seven clinical isolates of Staphylococcus spp. including 2 S. aureus, 3 S. saprophyticus, and 2 S. epidermidis were used. They were isolated from urine samples in our previous study. Two reference strains (S. aureus ATCC1026 and S. epidermidis ATCC35984) obtained from the American Type Culture Collection were also included. They were kept in the mixture of glycerol and Mueller Hinton Broth (MHB) (1:1) at −20°C, and the activation was achieved using the streak technique on Mueller Hinton agar (MHA) medium.
The MICs of ATBs and NPs were determined by the broth microdilution method as previously described. NPs and ATBs were, respectively, prepared at 4096 µg/mL and 512 µg/mL and serially diluted twofold with MHB in a 96-well microplate at a volume of 100 µL. Then, the wells were filled with 100 µL of inoculum (1.5 × 10^6 CFU/mL) to give final concentrations ranging from 1024 µg/mL to 0.5 µg/mL and 128 µg/mL to 0.062 µg/mL of NPs and ATBs, respectively. The microplates were incubated for 24 h at 37°C. Wells containing only bacterial inoculum were used as the negative control. After incubation, a volume of 40 µL of INT solution (0.2 mg/mL) was added to each well, and the microplate was incubated at 37°C for 30 min. Viable bacteria cells change the yellow dye of INT to a pink color. The MIC was considered as the lowest concentration of the sample at which there was no change in the coloration of the medium, corresponding to the complete inhibition of microbial growth.
All tests were performed in triplicate.

S. saprophyticus biofilm = test: Biofilm eradication assay (MBEC, MTT); assay type: cell-based, Staphylococcus saprophyticus; conditions: Staphylococcus saprophyticus, 24 h; geometric mean, S. saprophyticus (n = 3)
Experimental: The determination of the biofilm eradication potential of NPs and ATBs was performed as previously described. Briefly, 100 µL of bacterial inoculum (1.5 × 10^6 CFU/mL) and 100 µL of MHB + 1% glucose were introduced into the microplate, incubated at 37°C for 24 h, and the microplate was gently emptied and washed three times with PBS. Then, 200 µL of ATBs or NPs at respective concentrations ranging from 8 to 1024 µg/mL and from 16 to 2048 µg/mL were incubated at 37°C for 24 h. Once incubation was completed, the microplate was processed as described above, and the percentage of biofilm eradication was calculated using the formula below. The minimal biofilm eradicating concentration (MBEC) was recorded as the lowest concentration of the test sample that reduces 100% of biofilm:(2) % biofilm eradication=ODcontrol−ODblank−ODtest−ODblank/ODcontrol−ODblank×100.

[3] = tested on: UROtsa urinary epithelial cells; test: Cytotoxicity, MTT assay; assay type: cell-based; conditions: 48 h
Experimental: (§2) Two cell lines, including Raw 264.7 macrophages and the urinary epithelial cell line UROtsa obtained from the American Type Culture Collection (Rockville, MD, USA), were used. They were cultured in Dulbecco's modified Eagle's medium (DMEM), which was supplemented with 10% fetal bovine serum (FBS) and 1% penicillin, streptomycin, and fungizone (PSF). They were then grown at 37°C in a humidified environment containing 5% CO2.
(§3) The cytotoxicity of the selected synergistic combinations, as well as the individual constituents of combinations, against the abovementioned cell lines was performed by the MTT assay as previously described. Briefly, cells from each line were harvested in the logarithmic phase using trypsin (0.05% trypsin, 0.02% EDTA in PBS). Cell suspension was diluted with an appropriate growth medium to obtain a cell density of 10^4 cells/well. A 100 µL aliquot of each suspension was seeded into 96-well cell culture plates and incubated at 37°C in an atmosphere of 5% CO2 and 95% relative humidity. After 24 h of incubation, 100 µL of samples (ATBs and NPs) at concentrations varying from 0.01, 0.1, 1, 10, 100, and 1000, as well as the synergistic combinations (C1 to C5), was added to the wells containing the cells. Doxorubicin was used as a positive control. Appropriate controls with an equivalent concentration of DMSO were also included. Plates were incubated for 48 h, then the medium in each well was aspirated, and MTT solution (2 mg/mL in PBS) was diluted 1:10 with fresh medium and added to each well, and the plates were further incubated at 37°C for 4 h. Absorbance was measured on a BioTek microplate reader at 570 nm. The percentage of cell viability was calculated by comparing treated and untreated cells using the equation [39]:(3) cell viability %=ODtest/ODcontrol×100.
(§4) Then, the IC50 values of the samples having shown at least 50% inhibition were calculated by plotting the percentage of inhibition against the concentrations.

Raw 264.7 macrophages = test: Cytotoxicity, MTT assay; assay type: cell-based; conditions: Raw 264.7, MTT
Experimental: as §2, §3, §4

[4] = Epithelial cell, read-out: IC50
[5] = Mus musculus, RAW264.7, 48 h, read-out: IC50

Structure (SMILES) | MIC ([1]; 24 h, read-out: MIC alone, ATB) | MIC ([1]; read-out: MIC alone, ATB) | MIC ([2]; 24 h, read-out: MIC alone, ATB) | MIC ([2]; read-out: MIC alone, ATB) | MBC (S. epidermidis; antibiotics) | MIC (S. epidermidis) | minimal effective concentration (S. saprophyticus biofilm) | IC50 [3] | IC50 [3, 4] | IC50 (Raw 264.7 macrophages; [5]) | IC50 (Raw 264.7 macrophages; 48 h) | MIC alone, NPs ([1]; listed as Ber) | MIC ([1]; 24 h, read-out: MIC alone, NPs) | MIC ([1]; read-out: MIC alone, NPs) | MIC ([2]; 24 h, read-out: MIC alone, NPs) | MIC ([2]; read-out: MIC alone, NPs) | MBC (S. epidermidis; natural products) | MIC alone, NPs ([1]; listed as Cur)
NCC[C@H](O)C(=O)N[C@@H]1C[C@H](N)[C@@H](O[C@H]2O[C@H](CN)[C@@H](O)[C@H](O)[C@H]2O)[C@H](O)[C@H]1O[C@H]1O[C@H](CO)[C@@H](O)[C@H](N)[C@H]1O [Amikacin, amikacin] | 22 µg/mL | 22 µg/mL | 4.33 µg/mL | 4.33 µg/mL | > 128 µg/mL | 1.16 µg/mL (≈ 1.98 µM) | 13.3 µg/mL | — (IC50 > 1000 µg/mL) | > 1000 µg/mL | > 1000 µg/mL | — (IC50 > 1000 µg/mL) | – | – | – | – | – | – | –
CC1(C)S[C@@H]2[C@H](NC(=O)[C@H](N)c3ccc(O)cc3)C(=O)N2[C@H]1C(=O)O [Amoxicillin, amoxicillin] | 22 µg/mL | 22 µg/mL | 86.7 µg/mL | 86.7 µg/mL | > 128 µg/mL | 26.8 µg/mL (≈ 73.4 µM) | 9.33 µg/mL | — (IC50 > 1000 µg/mL) | > 1000 µg/mL | > 1000 µg/mL | — (IC50 > 1000 µg/mL) | – | – | – | – | – | – | –
COc1ccc2cc3[n+](cc2c1OC)CCc1cc2c(cc1-3)OCO2 [Berberine, berberine] | – | – | – | – | – | 213 µg/mL | 171 µg/mL | – | – | – | – | 298.66 µg/mL | 213 µg/mL | 213 µg/mL | 139 µg/mL | 139 µg/mL | > 1020 µg/mL | –
Cc1nnc(SCC2=C(C(=O)O)N3C(=O)[C@@H](NC(=O)Cn4cnnn4)[C@H]3SC2)s1 [Cefazolin, cefazolin] | 64.7 µg/mL | 64.7 µg/mL | 42.7 µg/mL | 42.7 µg/mL | 139 µg/mL (≈ 305 µM) | 42.7 µg/mL (≈ 93.9 µM) | 10.7 µg/mL | — (IC50 > 1000 µg/mL) | > 1000 µg/mL | > 1000 µg/mL | 504.26 µg/mL | – | – | – | – | – | – | –
C=CC1=C(C(=O)O)N2C(=O)[C@@H](NC(=O)/C(=N\OCC(=O)O)c3csc(N)n3)[C@H]2SC1 [Cefixime, cefixime] | 192 µg/mL | 192 µg/mL | 213 µg/mL | 213 µg/mL | > 128 µg/mL | 107 µg/mL (≈ 235 µM) | 48 µg/mL | — (IC50 > 1000 µg/mL) | > 1000 µg/mL | – | 473.83 µg/mL | – | – | – | – | – | – | –
COc1cc(/C=C/C(=O)CC(=O)/C=C/c2ccc(O)c(OC)c2)ccc1O [Curcumin, curcumin] | – | – | – | – | – | 384 µg/mL (≈ 1040 µM) | 171 µg/mL | – | 51.9 µg/mL | 94.4 µg/mL | – | – | 149 µg/mL | 149 µg/mL | 235 µg/mL | 235 µg/mL | > 1020 µg/mL | 213.33 µg/mL
